Experimental data: the supplement of paper PMC10307832

Legend:
Assay in all cases: relative viability (nuclei count vs DMSO), 5 days (fraction); higher = more cells survive
[1] = compound: Cc1nc(NC(=O)N2CCC[C@H]2C(N)=O)sc1-c1ccnc(C(C)(C)C(F)(F)F)c1 [Alpelisib] + Nc1ncn([C@H]2C[C@H](O)[C@@H](CO)O2)c(=O)n1 [Decitabine] (partner 2 µM)
In short: (§1)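 Lung cancer cell lines were seeded in 1536-well plates and dosed by pin tool the next day, with either a single drug or a fixed anchor-drug dose combined with five library-drug doses (not always all listed) spaced in √10 steps. Five days later, one step fixed the cells and stained their nuclei (final 0.05% Triton X-100, 1% formaldehyde, 1 ug/ml Hoechst), and nuclei were counted on 4× images. Relative viability is the nuclei count in treated wells divided by the count in vehicle wells, and each value is the median of duplicate plates.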

[2] = compound: Cc1nc(NC(=O)N2CCC[C@H]2C(N)=O)sc1-c1ccnc(C(C)(C)C(F)(F)F)c1 [Alpelisib] + CC(=O)c1c(C)c2cnc(Nc3ccc(N4CCNCC4)cn3)nc2n(C2CCCC2)c1=O [Palbociclib] (partner 0.5 µM)
In short: as §1

[3] = compound: Cc1nc(NC(=O)N2CCC[C@H]2C(N)=O)sc1-c1ccnc(C(C)(C)C(F)(F)F)c1 [Alpelisib] + C[C@]1(O)C[C@@H](c2nc(-c3ccc4ccc(-c5ccccc5)nc4c3)c3c(N)nccn32)C1 [Linsitinib] (partner 1 µM)
In short: as §1

[4] = compound: COc1cccc2cc(-c3nc([C@H]4CC[C@H](C(=O)O)CC4)n4ncnc(N)c34)[nH]c12 [OSI-027] + CC(C)C[C@H](NC(=O)[C@H](Cc1ccccc1)NC(=O)c1cnccn1)B(O)O [Bortezomib] (partner 0.002 µM)
In short: as §1

Row | Cell Line | relative viability ([1]; first compound 0.04 µM) | relative viability ([1]; first compound 0.1265 µM) | relative viability ([1]; first compound 0.4 µM) | relative viability ([1]; first compound 1.265 µM) | relative viability ([1]; first compound 4 µM) | relative viability ([2]; first compound 0.04 µM) | relative viability ([2]; first compound 0.1265 µM) | relative viability ([2]; first compound 0.4 µM) | relative viability ([2]; first compound 1.265 µM) | relative viability ([2]; first compound 4 µM) | relative viability ([3]; first compound 0.04 µM) | relative viability ([3]; first compound 0.1265 µM) | relative viability ([3]; first compound 0.4 µM) | relative viability ([3]; first compound 1.265 µM) | relative viability ([3]; first compound 4 µM) | relative viability ([4]; first compound 0.01 µM) | relative viability ([4]; first compound 0.03162 µM) | relative viability ([4]; first compound 0.1 µM) | relative viability ([4]; first compound 0.3162 µM) | relative viability ([4]; first compound 1 µM)
1 | NCI-H1755 | 0.661 | 0.69 | 0.778 | 0.678 | 0.575 | 0.417 | 0.41 | 0.458 | 0.371 | 0.382 | 1.01 | 0.941 | 1.03 | 0.978 | 0.764 | 1 | 0.96 | 0.983 | 0.89 | 0.556
2 | NCI-H1650 | 0.346 | 0.365 | 0.389 | 0.345 | 0.362 | 0.423 | 0.275 | 0.403 | 0.29 | 0.298 | – | – | – | – | – | 0.171 | 0.195 | 0.206 | 0.201 | 0.19
3 | NCI-H522 | 0.707 | 0.741 | 0.681 | 0.591 | 0.61 | 0.993 | 0.752 | 0.87 | 0.944 | 0.657 | – | – | – | – | – | – | – | – | – | –
4 | NCI-H2342 | 0.697 | 0.666 | 0.701 | 0.711 | 0.503 | 0.57 | 0.509 | 0.518 | 0.467 | 0.414 | – | – | – | – | – | – | – | – | – | –
5 | A549 | 0.197 | 0.294 | 0.322 | 0.25 | 0.229 | – | – | – | – | – | 0.647 | – | 0.577 | 0.5 | 0.445 | – | – | – | – | –
6 | EBC-1 | – | – | – | – | – | – | – | – | – | – | 0.81 | 0.822 | 1.02 | 0.825 | 0.793 | 0.497 | 0.557 | 0.515 | 0.53 | 0.375
7 | NCI-H2170 | 0.44 | 0.424 | 0.477 | 0.439 | 0.401 | 0.351 | 0.337 | 0.36 | 0.246 | 0.21 | – | – | – | – | – | – | – | – | – | –
8 | NCI-H1563 | – | – | – | – | – | – | – | – | – | – | 1.18 | 1.19 | 1.2 | 1.06 | 1.19 | 0.822 | 0.872 | 0.781 | 0.741 | 0.722
9 | NCI-H2228 | – | – | – | – | – | 0.748 | 0.519 | 0.771 | 0.332 | 0.355 | 0.762 | 0.496 | 0.564 | 0.517 | 0.287 | 0.977 | 1.01 | 0.999 | – | 0.65
10 | NCI-H1395 | 0.747 | 0.699 | 0.75 | 0.645 | 0.65 | 0.634 | 0.651 | 0.649 | 0.475 | 0.589 | 1.12 | 1.17 | 1.42 | 0.82 | 1.18 | – | – | – | – | –
11 | CAL-12T | – | – | – | – | – | 0.413 | 0.38 | 0.647 | 0.415 | 0.355 | 0.801 | 0.67 | 0.814 | 0.784 | 0.76 | 0.814 | 1.02 | 0.713 | 0.754 | 0.729
12 | NCI-H1793 | 0.539 | 0.466 | 0.449 | 0.388 | 0.275 | 0.367 | 0.287 | 0.332 | 0.324 | 0.245 | 0.596 | 1.19 | 0.997 | 0.692 | 0.525 | – | – | – | – | –
13 | Calu-6 | – | – | – | – | – | – | – | – | – | – | 0.906 | 0.978 | 1.03 | 0.806 | 0.912 | 1.34 | 0.956 | 1 | 0.906 | 0.896
14 | NCI-H1944 | 0.429 | 0.44 | 0.413 | 0.37 | 0.384 | 0.303 | 0.302 | 0.345 | 0.241 | 0.221 | 0.985 | 1.2 | 1.17 | 0.858 | 0.543 | – | – | – | – | –
15 | ChaGo-K-1 | 0.52 | 0.529 | 0.526 | 0.475 | 0.446 | 0.958 | 0.965 | 1 | 0.747 | 0.584 | – | – | – | – | – | 0.987 | 1.17 | 0.554 | 0.838 | 0.762
16 | SK-MES-1 | 0.363 | 0.376 | 0.358 | 0.292 | 0.297 | 0.361 | 0.307 | 0.313 | 0.254 | 0.3 | 1.13 | 1.04 | 1.22 | 0.939 | 0.99 | – | – | – | – | –
17 | NCI-H1648 | 0.477 | 0.508 | 0.353 | 0.372 | 0.253 | 0.259 | 0.304 | 0.241 | 0.234 | 0.237 | – | – | – | – | – | – | – | – | – | –
18 | NCI-H596 | 1 | 0.954 | 1.01 | 0.699 | 0.61 | – | – | – | – | – | 1.05 | 1.03 | 0.867 | 0.555 | 0.477 | 0.869 | 1.02 | 0.884 | 0.897 | 0.892
19 | NCI-H358 | 0.194 | 0.195 | 0.205 | 0.178 | 0.169 | 0.118 | 0.104 | 0.139 | 0.103 | 0.103 | 0.683 | 0.657 | 0.605 | 0.334 | 0.397 | – | – | – | – | –
20 | SW 900 | 0.425 | – | 0.411 | 0.505 | 0.379 | 0.536 | – | 0.706 | 0.483 | 0.49 | – | – | – | – | – | – | – | – | – | –
